Numbered stars: 1 amine (or outer) side, 2 acyl side, 3 side chain; on linkers, the order of the positions; unused ones are H or OH. Bridge positions count the residues as written; N and C are the ends. Square brackets hold non-standard residues; d marks the D form. Side chains are listed from the residue outwards. Peptide text beside a SMILES is read from it. * marks the point of attachment. C20 diacid = O=C(O)CCCCCCCCCCCCCCCCCCC(=O)*; γGlu = O=C(O)[C@H](CCC(=O)[*:2])N[*:1]; Aad = N[C@@H](CCCC(=O)O)C(=O)O; Orn = NCCC[C@H](N)C(=O)O; Dab = NCC[C@H](N)C(=O)O; Dap = NC[C@H](N)C(=O)O
How the values were obtained:
[1] = Freeze-thaw stability of derivatives (freeze-thaw yield by liquid chromatography); type: physicochemical; conditions: for Dissolution property: appearance after dissolution at 0.2 mg/ml in 20 mM phosphate buffer solution (PB) (pH 7.0); for Freeze storage property: appearance after overnight storage at −20° C. and thawing to room temperature, 0.2 mg/ml in 20 mM PB (pH 7.0); for Freeze storage yield: concentration of polypeptide after freezing and thawing / concentration before, by liquid chromatography, −20° C. overnight
Summary of the method: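 Freeze-thaw yield is the ratio of peptide concentration after versus before one overnight −20° C freeze and room-temperature thaw, both quantified by RP-HPLC of supernatant after centrifugation. Samples were 0.2 mg/ml freeze-dried derivative in 20 mM PB, pH 7.0.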

human amylin receptor = biological target: T1, human amylin receptor (Homo sapiens, UniProt O60896+P30988); assay: Luciferase assay of amylin derivatives in amylin receptor/CRE-luc CHO cell line; type: cell-based; conditions: CHO-K1/Ga15/AMY3 CRE-luc cells, 24 hours incubation, F12 medium containing 10% FBS; read-out: EC50
T1 construct: host or cells: CHO-K1/Ga15/AMY3 cells, further stably transfected with a CRE-luciferase plasmid
T1 sequence (P30988 25-474): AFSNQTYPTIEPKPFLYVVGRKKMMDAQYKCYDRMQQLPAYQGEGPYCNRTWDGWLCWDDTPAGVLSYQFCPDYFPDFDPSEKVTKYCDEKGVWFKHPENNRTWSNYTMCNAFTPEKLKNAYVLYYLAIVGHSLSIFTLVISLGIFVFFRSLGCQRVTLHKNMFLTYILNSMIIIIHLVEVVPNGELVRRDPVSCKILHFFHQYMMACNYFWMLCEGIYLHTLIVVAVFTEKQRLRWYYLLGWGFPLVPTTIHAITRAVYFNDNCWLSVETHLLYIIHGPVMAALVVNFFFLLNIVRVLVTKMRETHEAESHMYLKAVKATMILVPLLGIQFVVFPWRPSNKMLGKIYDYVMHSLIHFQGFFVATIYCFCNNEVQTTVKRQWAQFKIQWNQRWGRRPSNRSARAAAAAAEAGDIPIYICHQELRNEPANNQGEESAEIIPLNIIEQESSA
T1 sequence (O60896 24-148 partner): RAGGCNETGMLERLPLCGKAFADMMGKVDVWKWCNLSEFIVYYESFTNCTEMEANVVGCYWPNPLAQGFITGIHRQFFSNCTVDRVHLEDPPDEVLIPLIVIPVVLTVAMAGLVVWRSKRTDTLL
Procedure: The experiment was intended to detect the activity or efficacy of the amylin derivatives on a human amylin receptor in vitro by luciferase assay.
50 μL of growth medium (F12 medium containing 10% FBS) was added into each well of a white 96-well plate, and the stably transfected amylin/CRE-lue CHO cells were inoculated into the white 96-well plate at a density of about 20,000 cells/well for activity determination.

SMILES	Dissolution property [1]	Freeze storage property [1]	EC50 (human amylin receptor)	Freeze storage yield [1]
CC[C@H](C)[C@H](NC(=O)[C@@H]1CCCN1C(=O)[C@H](CCCCNC(=O)CC[C@H](NC(=O)CCCCCCCCCCCCCCCCCCC(=O)O)C(=O)O)NC(=O)[C@H](CC(C)C)NC(=O)[C@H](CC(N)=O)NC(=O)[C@H](CC(N)=O)NC(=O)[C@H](CO)NC(=O)[C@H](CO)NC(=O)[C@H](Cc1c[nH]cn1)NC(=O)[C@H](CCCNC(=N)N)NC(=O)[C@H](CC(C)C)NC(=O)[C@H](Cc1ccccc1)NC(=O)[C@H](CCCC(=O)O)NC(=O)[C@H](C)NC(=O)[C@H](CC(C)C)NC(=O)[C@H](CCCNC(=N)N)NC(=O)[C@H](CCC(N)=O)NC(=O)[C@@H](NC(=O)[C@H](C)NC(=O)[C@@H]1CSSC[C@H](NC(=O)[C@@H](N)CCCNC(=N)N)C(=O)N[C@@H](CC(N)=O)C(=O)N[C@@H]([C@@H](C)O)C(=O)N[C@@H](C)C(=O)N[C@@H]([C@@H](C)O)C(=O)N1)[C@@H](C)O)C(=O)N[C@@H](CC(C)C)C(=O)N1CCC[C@H]1C(=O)N1CCC[C@H]1C(=O)N[C@H](C(=O)N[C@@H](CC(N)=O)C(=O)N[C@H](C(=O)NCC(=O)N[C@@H](CO)C(=O)N[C@@H](CC(N)=O)C(=O)N[C@H](C(=O)N1CCC[C@H]1C(N)=O)[C@@H](C)O)C(C)C)[C@@H](C)O [PD043] (H-RCNTATCATQRLA[Aad]FLRHSSNNLK([γGlu-C20 diacid])PILPPTNVGSNTP-NH2; disulfide 2-7 (inferred); N-terminus assumed)	Clear	Clear	1.13 nM	49.45%
CC[C@H](C)[C@H](NC(=O)[C@@H]1CCCN1C(=O)[C@H](CCCCNC(=O)CC[C@H](NC(=O)CCCCCCCCCCCCCCCCCCC(=O)O)C(=O)O)NC(=O)[C@H](CC(C)C)NC(=O)[C@H](CC(N)=O)NC(=O)[C@H](CC(N)=O)NC(=O)[C@H](CO)NC(=O)[C@H](CO)NC(=O)[C@H](Cc1c[nH]cn1)NC(=O)[C@H](CCCNC(=N)N)NC(=O)[C@H](CC(C)C)NC(=O)[C@H](Cc1ccccc1)NC(=O)[C@H](CCN)NC(=O)[C@H](C)NC(=O)[C@H](CC(C)C)NC(=O)[C@H](CCCNC(=N)N)NC(=O)[C@H](CCC(N)=O)NC(=O)[C@@H](NC(=O)[C@H](C)NC(=O)[C@@H]1CSSC[C@H](NC(=O)[C@@H](N)CCCNC(=N)N)C(=O)N[C@@H](CC(N)=O)C(=O)N[C@@H]([C@@H](C)O)C(=O)N[C@@H](C)C(=O)N[C@@H]([C@@H](C)O)C(=O)N1)[C@@H](C)O)C(=O)N[C@@H](CC(C)C)C(=O)N1CCC[C@H]1C(=O)N1CCC[C@H]1C(=O)N[C@H](C(=O)N[C@@H](CC(N)=O)C(=O)N[C@H](C(=O)NCC(=O)N[C@@H](CO)C(=O)N[C@@H](CC(N)=O)C(=O)N[C@H](C(=O)N1CCC[C@H]1C(N)=O)[C@@H](C)O)C(C)C)[C@@H](C)O [PD044] (H-RCNTATCATQRLA[Dab]FLRHSSNNLK([γGlu-C20 diacid])PILPPTNVGSNTP-NH2; disulfide 2-7 (inferred))	Clear	Clear	2.62 nM	84.90%
CC[C@H](C)[C@H](NC(=O)[C@@H]1CCCN1C(=O)[C@H](CCCCNC(=O)CC[C@H](NC(=O)CCCCCCCCCCCCCCCCCCC(=O)O)C(=O)O)NC(=O)[C@H](CC(C)C)NC(=O)[C@H](CC(N)=O)NC(=O)[C@H](CC(N)=O)NC(=O)[C@H](CO)NC(=O)[C@H](CO)NC(=O)[C@H](Cc1c[nH]cn1)NC(=O)[C@H](CCCN)NC(=O)[C@H](CC(C)C)NC(=O)[C@H](Cc1ccccc1)NC(=O)[C@H](CCC(=O)O)NC(=O)[C@H](C)NC(=O)[C@H](CC(C)C)NC(=O)[C@H](CCCNC(=N)N)NC(=O)[C@H](CCC(N)=O)NC(=O)[C@@H](NC(=O)[C@H](C)NC(=O)[C@@H]1CSSC[C@H](NC(=O)[C@@H](N)CCCNC(=N)N)C(=O)N[C@@H](CC(N)=O)C(=O)N[C@@H]([C@@H](C)O)C(=O)N[C@@H](C)C(=O)N[C@@H]([C@@H](C)O)C(=O)N1)[C@@H](C)O)C(=O)N[C@@H](CC(C)C)C(=O)N1CCC[C@H]1C(=O)N1CCC[C@H]1C(=O)N[C@H](C(=O)N[C@@H](CC(N)=O)C(=O)N[C@H](C(=O)NCC(=O)N[C@@H](CO)C(=O)N[C@@H](CC(N)=O)C(=O)N[C@H](C(=O)N1CCC[C@H]1C(N)=O)[C@@H](C)O)C(C)C)[C@@H](C)O [PD046] (H-RCNTATCATQRLAEFL[Orn]HSSNNLK([γGlu-C20 diacid])PILPPTNVGSNTP-NH2; disulfide 2-7 (inferred); N-terminus assumed)	Clear	Clear	1.68 nM	101.35%

The next compounds have a lower EC50 (human amylin receptor) than those just listed; values first:

Dissolution property [1]	Freeze storage property [1]	EC50 (human amylin receptor)	Freeze storage yield [1]	SMILES
Clear	Clear	0.067 nM		CC[C@H](C)[C@H](NC(=O)[C@@H]1CCCN1C(=O)[C@H](CCCCNC(=O)CC[C@H](NC(=O)CCCCCCCCCCCCCCCCCCC(=O)O)C(=O)O)NC(=O)[C@H](CC(C)C)NC(=O)[C@H](CC(N)=O)NC(=O)[C@H](CC(N)=O)NC(=O)[C@H](CO)NC(=O)[C@H](CO)NC(=O)[C@H](Cc1c[nH]cn1)NC(=O)[C@H](CCCNC(=N)N)NC(=O)[C@H](CC(C)C)NC(=O)[C@H](Cc1ccccc1)NC(=O)[C@H](CCC(=O)O)NC(=O)[C@H](C)NC(=O)[C@H](CC(C)C)NC(=O)[C@H](CCCNC(=N)N)NC(=O)[C@H](CCC(N)=O)NC(=O)[C@@H](NC(=O)[C@H](C)NC(=O)[C@@H]1CSSC[C@H](NC(=O)[C@@H](N)CCCNC(=N)N)C(=O)N[C@@H](CC(N)=O)C(=O)N[C@@H]([C@@H](C)O)C(=O)N[C@@H](C)C(=O)N[C@@H]([C@@H](C)O)C(=O)N1)[C@@H](C)O)C(=O)N[C@@H](CC(C)C)C(=O)N1CCC[C@H]1C(=O)N1CCC[C@H]1C(=O)N[C@H](C(=O)N[C@@H](CC(N)=O)C(=O)N[C@H](C(=O)NCC(=O)N[C@@H](CO)C(=O)N[C@@H](CC(N)=O)C(=O)N[C@H](C(=O)N1CCC[C@H]1C(N)=O)[C@@H](C)O)C(C)C)[C@@H](C)O [PD009] (H-RCNTATCATQRLAEFLRHSSNNLK([γGlu-C20 diacid])PILPPTNVGSNTP-NH2; disulfide 2-7 (inferred))
Clear	Muddy	0.772 nM	100.81%	CC[C@H](C)[C@H](NC(=O)[C@@H]1CCCN1C(=O)[C@H](CCCCNC(=O)CC[C@H](NC(=O)CCCCCCCCCCCCCCCCCCC(=O)O)C(=O)O)NC(=O)[C@H](CC(C)C)NC(=O)[C@H](CC(N)=O)NC(=O)[C@H](CC(N)=O)NC(=O)[C@H](CO)NC(=O)[C@H](CO)NC(=O)[C@H](Cc1c[nH]cn1)NC(=O)[C@H](CCCNC(=N)N)NC(=O)[C@H](CC(C)C)NC(=O)[C@H](Cc1ccccc1)NC(=O)[C@H](CCC(=O)O)NC(=O)[C@H](C)NC(=O)[C@H](CC(C)C)NC(=O)[C@H](CCCNC(=N)N)NC(=O)[C@H](CCC(N)=O)NC(=O)[C@@H](NC(=O)[C@H](C)NC(=O)[C@@H]1CSSC[C@H](NC(=O)[C@@H](N)CCCNC(=N)N)C(=O)N[C@@H](CC(N)=O)C(=O)N[C@@H]([C@@H](C)O)C(=O)N[C@@H](C)C(=O)N[C@@H]([C@@H](C)O)C(=O)N1)[C@@H](C)O)C(=O)N[C@@H](CC(C)C)C(=O)N1CCC[C@H]1C(=O)N1CCC[C@H]1C(=O)N[C@H](C(=O)N[C@@H](CC(N)=O)C(=O)N[C@H](C(=O)NCC(=O)N[C@@H](CO)C(=O)N[C@@H](CC(N)=O)C(=O)N[C@H](C(=O)N[C@@H](Cc1ccc(O)cc1)C(N)=O)[C@@H](C)O)C(C)C)[C@@H](C)O [PD017] (H-RCNTATCATQRLAEFLRHSSNNLK([γGlu-C20 diacid])PILPPTNVGSNTY-NH2; disulfide 2-7 (inferred); N-terminus assumed)
Clear	Clear	0.364 nM	95.59%	CC[C@H](C)[C@H](NC(=O)[C@@H]1CCCN1C(=O)[C@H](CCCCNC(=O)CC[C@H](NC(=O)CCCCCCCCCCCCCCCCCCC(=O)O)C(=O)O)NC(=O)[C@H](CC(C)C)NC(=O)[C@H](CC(N)=O)NC(=O)[C@H](CC(N)=O)NC(=O)[C@H](CO)NC(=O)[C@H](CO)NC(=O)[C@H](Cc1c[nH]cn1)NC(=O)[C@H](CCCNC(=N)N)NC(=O)[C@H](CC(C)C)NC(=O)[C@H](Cc1ccccc1)NC(=O)[C@H](CN)NC(=O)[C@H](C)NC(=O)[C@H](CC(C)C)NC(=O)[C@H](CCCNC(=N)N)NC(=O)[C@H](CCC(N)=O)NC(=O)[C@@H](NC(=O)[C@H](C)NC(=O)[C@@H]1CSSC[C@H](NC(=O)[C@@H](N)CCCNC(=N)N)C(=O)N[C@@H](CC(N)=O)C(=O)N[C@@H]([C@@H](C)O)C(=O)N[C@@H](C)C(=O)N[C@@H]([C@@H](C)O)C(=O)N1)[C@@H](C)O)C(=O)N[C@@H](CC(C)C)C(=O)N1CCC[C@H]1C(=O)N1CCC[C@H]1C(=O)N[C@H](C(=O)N[C@@H](CC(N)=O)C(=O)N[C@H](C(=O)NCC(=O)N[C@@H](CO)C(=O)N[C@@H](CC(N)=O)C(=O)N[C@H](C(=O)N1CCC[C@H]1C(N)=O)[C@@H](C)O)C(C)C)[C@@H](C)O [PD045] (H-RCNTATCATQRLA[Dap]FLRHSSNNLK([γGlu-C20 diacid])PILPPTNVGSNTP-NH2; disulfide 2-7 (inferred); N-terminus assumed)

Source: patent US20260166128A1, “HUMAN AMYLIN ANALOG, AND DERIVATIVE THEREOF AND USE THEREOF” (priority 2022, published 2026)
